Results reported in ChEMBL document CHEMBL1933067, “The design, synthesis and in vitro immunosuppressive evaluation of novel isobenzofuran derivatives” (Bioorg Med Chem Lett, 2012).

Test system: T-cell
Test: Immunosuppressive activity in mouse T-cells assessed as inhibition of concanavalin A-induced proliferation
Assay type: functional, cell-based

SMILES | IC50 [µM]
CC(=O)Oc1ccc(/C=C/C(=O)Nc2ccc3c(c2)COC3=O)cc1OC(C)=O | 0.18
CC(C)(C)c1ccc(/C=C/C(=O)Nc2ccc3c(c2)COC3=O)cc1 | 0.72
O=C(/C=C/c1ccccc1Br)Nc1ccc2c(c1)COC2=O | > 100
COc1cc(/C=C/C(=O)Nc2ccc3c(c2)COC3=O)cc(OC)c1OC | 1.73
Cc1ccc(NC(=O)Nc2ccc3c(c2)COC3=O)cc1 | 2.67
O=C(Nc1ccc(F)cc1)Nc1ccc2c(c1)COC2=O | 4.19
O=C(Nc1ccc(I)cc1)Nc1ccc2c(c1)COC2=O | 1.37
O=C(Nc1ccccc1)Nc1ccc2c(c1)COC2=O | 7.09
O=C(/C=C/c1ccccc1)Nc1ccc2c(c1)COC2=O | 7.24
COc1cc(CCC(=O)Nc2ccc3c(c2)COC3=O)cc(OC)c1OC | 7.74
COc1cc(CN(C)C(=O)C(=O)Nc2ccc3c(c2)COC3=O)cc(OC)c1OC | 3.28
CN(C(=O)Nc1ccc2c(c1)COC2=O)c1ccccc1 | > 100
CCCNC(=O)Nc1ccc2c(c1)COC2=O | 58.1
COc1ccccc1/C=C/C(=O)Nc1ccc2c(c1)COC2=O | 0.039
O=C(Nc1ccc(O)cc1)C(=O)Nc1ccc2c(c1)COC2=O | 5.03
CN(Cc1ccccc1)C(=O)C(=O)Nc1ccc2c(c1)COC2=O | 14.3
N#Cc1ccc(/C=C/C(=O)Nc2ccc3c(c2)COC3=O)cc1 | 43.1
CC(C)c1ccc(/C=C/C(=O)Nc2ccc3c(c2)COC3=O)cc1 | 1.59

SMILES | IC50 [µM]
CC(C)(C)NC(=O)C(=O)Nc1ccc2c(c1)COC2=O | 3.4
O=C(Nc1ccc(F)cc1)C(=O)Nc1ccc2c(c1)COC2=O | 0.57
Cc1ccccc1NC(=O)Nc1ccc2c(c1)COC2=O | 0.9
O=C(/C=C/c1ccco1)Nc1ccc2c(c1)COC2=O | 9
O=C(Nc1ccc(Cl)cc1)C(=O)Nc1ccc2c(c1)COC2=O | 2.24
Cc1cccc(NC(=O)Nc2ccc3c(c2)COC3=O)c1 | 2.26
O=C(Nc1ccc(Cl)cc1)Nc1ccc2c(c1)COC2=O | 2.45
COc1c(C)c2c(c(O)c1C/C=C(\C)CCC(=O)O)C(=O)OC2 [MYCOPHENOLIC ACID] | 0.28
COc1ccc(NC(=O)C(=O)Nc2ccc3c(c2)COC3=O)cc1 | 153
O=C(Nc1ccc2c(c1)COC2=O)NC1CCCCC1 | 12.7
O=C(Nc1cccc([N+](=O)[O-])c1)C(=O)Nc1ccc2c(c1)COC2=O | 1.82
O=C(Nc1ccccc1)C(=O)Nc1ccc2c(c1)COC2=O | 36.1
Cc1ccccc1NC(=O)C(=O)Nc1ccc2c(c1)COC2=O | 5.51
COc1cc(/C=C/C(=O)Nc2ccc3c(c2)COC3=O)ccc1OC(C)=O | 0.136
CC(=O)Oc1cccc(/C=C/C(=O)Nc2ccc3c(c2)COC3=O)c1 | 0.03
COc1ccc(/C=C/C(=O)Nc2ccc3c(c2)COC3=O)cc1OC | 0.029
O=C(/C=C/c1cccc(F)c1)Nc1ccc2c(c1)COC2=O | 0.034
O=C(/C=C/c1ccccn1)Nc1ccc2c(c1)COC2=O | 17.9

Biological target: Inosine-5'-monophosphate dehydrogenase 2 (Homo sapiens, UniProt P12268)
Test: Inhibition of IMPDH2

IC50 [µM] | SMILES
2.8 | CC(=O)Oc1ccc(/C=C/C(=O)Nc2ccc3c(c2)COC3=O)cc1OC(C)=O
3.2 | CC(C)(C)c1ccc(/C=C/C(=O)Nc2ccc3c(c2)COC3=O)cc1
8.8 | CC(=O)Oc1cccc(/C=C/C(=O)Nc2ccc3c(c2)COC3=O)c1
2.1 | COc1ccc(/C=C/C(=O)Nc2ccc3c(c2)COC3=O)cc1OC
4.5 | O=C(/C=C/c1cccc(F)c1)Nc1ccc2c(c1)COC2=O
